Like-named read-outs stand apart in the source and are kept apart here.
Target: human LPAR1 (Homo sapiens, UniProt Q92633)
Assay: In vitro functional assay of lysophosphatidic acid receptor 1 activity (calcium flux)
Format: cell-based
[1] = B103 cells stably expressing human LPAR1, calcium flux (Fluo-4 NW) after lysophosphatidic acid (18:1) at EC80, 100 pM to 10 μM, read-out: LPAR1 IC50

Chain of human LPAR1 (Q92633 whole entry): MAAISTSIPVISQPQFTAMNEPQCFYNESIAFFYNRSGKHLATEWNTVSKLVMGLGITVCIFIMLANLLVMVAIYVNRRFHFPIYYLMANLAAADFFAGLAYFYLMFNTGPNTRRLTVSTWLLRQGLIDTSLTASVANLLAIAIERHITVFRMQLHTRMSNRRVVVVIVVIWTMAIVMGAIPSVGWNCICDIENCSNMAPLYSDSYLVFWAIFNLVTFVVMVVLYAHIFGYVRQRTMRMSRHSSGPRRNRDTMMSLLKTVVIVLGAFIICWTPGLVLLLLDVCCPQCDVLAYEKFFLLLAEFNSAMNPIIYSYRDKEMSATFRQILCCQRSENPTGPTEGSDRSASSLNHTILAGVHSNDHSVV

SMILES	IC50 [1] [nM]	IC50 (LPAR1 IC50) [nM]
CC(=O)N1CC[C@H]1CN(C(=O)Nc1ccc(C)nc1OC(F)F)c1ccccc1C(C)C [Example 72, (S)-1-((1-acetylazetidin-2-yl)methyl)-3-(2-(difluoromethoxy)-6-methylpyridin-3-yl)-1-(2-isopropylphenyl)urea]	100 to 1000	–
Cc1ccc(NC(=O)N(c2ccccc2C(C)C)C2CCN(S(C)(=O)=O)CC2)c(OC(F)F)n1 [Example 73, 3-(2-(difluoromethoxy)-6-methylpyridin-3-yl)-1-(2-isopropylphenyl)-1-(1-(methylsulfonyl)piperidin-4-yl)urea]	–	< 10
Cc1ccc(NC(=O)N(c2ccccc2C(C)C)C2CN(S(C)(=O)=O)C2)c(OC(F)F)n1 [Example 74, 3-(2-(difluoromethoxy)-6-methylpyridin-3-yl)-1-(2-isopropylphenyl)-1-(1-(methylsulfonyl)azetidin-3-yl)urea]	100 to 1000	–
Cc1ccc(NC(=O)N(c2ccccc2C(C)C)[C@H]2CCN(S(C)(=O)=O)C2)c(OC(F)F)n1 [Example 75, (S)-3-(2-(difluoromethoxy)-6-methylpyridin-3-yl)-1-(2-isopropylphenyl)-1-(1-(methylsulfonyl)pyrrolidin-3-yl)urea]	10 to 100	–
Cc1ccc(NC(=O)N(c2ccccc2C(C)C)C2CC3(C2)CN(S(C)(=O)=O)C3)c(OC(F)F)n1 [Example 76, 3-(2-(difluoromethoxy)-6-methylpyridin-3-yl)-1-(2-isopropylphenyl)-1-(2-(methylsulfonyl)-2-azaspiro[3.3]heptan-6-yl)urea]	100 to 1000	–
COC(=O)N1CC(N(C(=O)Nc2ccc(C)nc2OC(F)F)c2ccccc2C(C)C)C1 [Example 77, methyl 3-(3-(2-(difluoromethoxy)-6-methylpyridin-3-yl)-l-(2-isopropylphenyl)ureido)azetidine-1-carboxylate]	10 to 100	–
CCOC(=O)N1CC(N(C(=O)Nc2ccc(C)nc2OC(F)F)c2ccccc2C(C)C)C1 [Example 78, ethyl 3-(3-(2-(difluoromethoxy)-6-methylpyridin-3-yl)-1-(2-isopropylphenyl)ureido)azetidine-1-carboxylate]	10 to 100	–
Cc1ccc(NC(=O)N(c2ccccc2C(C)C)C2CCN(C(=O)Cn3nccn3)CC2)c(OC(F)F)n1 [Example 79, 1-(1-(2-(2H-1,2,3-triazol-2-yl)acetyl)piperidin-4-yl)-3-(2-(difluoromethoxy)-6-methylpyridin-3-yl)-1-(2-isopropylphenyl)urea]	–	< 10
Cc1ccc(NC(=O)N(c2ccccc2C(C)C)C2CN(C(=O)Cn3nccn3)C2)c(OC(F)F)n1 [Example 80, 1-(1-(2-(2H-1,2,3-triazol-2-yl)acetyl)azetidin-3-yl)-3-(2-(difluoromethoxy)-6-methylpyridin-3-yl)-1-(2-isopropylphenyl)urea]	100 to 1000	–
Cc1ccc(NC(=O)N(c2ccccc2C(C)C)C2CN(C(=O)CC#N)C2)c(OC(F)F)n1 [Example 81, 1-(1-(2-cyanoacetyl)azetidin-3-yl)-3-(2-(difluoromethoxy)-6-methylpyridin-3-yl)-1-(2-isopropylphenyl)urea]	10 to 100	–
COCC(=O)N1CC(N(C(=O)Nc2ccc(C)nc2OC(F)F)c2ccccc2C(C)C)C1 [Example 82, 3-(2-(difluoromethoxy)-6-methylpyridin-3-yl)-1-(2-isopropylphenyl)-1-(1-(2-methoxyacetyl)azetidin-3-yl)urea]	10 to 100	–
Cc1ccc(NC(=O)N(c2ccccc2C(C)C)[C@H]2CCN(C(=O)Cn3nccn3)C2)c(OC(F)F)n1 [Example 83, (S)-1-(1-(2-(2H-1,2,3-triazol-2-yl)acetyl)pyrrolidin-3-yl)-3-(2-(difluoromethoxy)-6-methylpyridin-3-yl)-1-(2-isopropylphenyl)urea]	100 to 1000	–
Cc1ccc(NC(=O)N(c2ccccc2C(C)C)C2CC3(C2)CN(C(=O)Cn2nccn2)C3)c(OC(F)F)n1 [Example 84, 1-(2-(2-(2H-1,2,3-triazol-2-yl)acetyl)-2-azaspiro[3.3]heptan-6-yl)-3-(2-(difluoromethoxy)-6-methylpyridin-3-yl)-1-(2-isopropylphenyl)urea]	100 to 1000	–
